# US20050096370A1, “Method for inhibiting tumor angiogenesis and tumor growth” (Bizbiotech Co., Ltd., priority 2003, published 2005)
# Legend:
# [1] = tested on: NCI-H87 gastric carcinoma; assay: NCI-H87 gastric carcinoma xenograft tumor growth in nude mice; assay type: in vivo; settings: YC-1 30 μg/g daily i.p. 2 weeks, P<0.01
# Procedure: (§1) Male nude mice were injected subcutaneously in the flank with 5×10^6 viable Hep3B hepatoma (A), NCI-H87 gastric carcinoma (B), SiHa cervical carcinoma (C), SK-N-MC neuroblastoma (E), or Caki-I renal carcinoma (F) cells. […] Tumor size was measured over time. […] Differences between tumor sizes in the vehicle- and YC-1-treated groups for mice with Hep3B tumors were compared using ANOVA and Duncan's multiple range tests. * denotes P<0.001 relative to the control. Differences between tumor sizes in the vehicle and YC-1-treated groups for mice with other tumors (B-E) were compared using a Mann-Whitney U test. Each number beneath the error bar represents the P value of the difference relative to the control.
# (§2) Male nude (BALB/cAnNC˜-nu/nu) mice were purchased from Charles River Japan Inc. (Shin-Yokohama, JAPAN). The animals were housed in a specific pathogen-free room under controlled temperature and humidity. All animal procedures were performed according to the established procedures of the Seoul National University Laboratory Animal Maintenance Manual. Eighty mice aged 7-8 weeks were injected with tumor cells for the xenograft experiments. […]
# (§3) Tumors were measured every 2 or 3 days with calipers in two dimensions and the tumor volumes were calculated using the formula: Volume=axb2/2, where a is the width at the widest point of the tumor and h is the width perpendicular to a. […]
# [2] = tested on: natural killer (NK) cell activity; assay: NK cell activity of splenic lymphocytes from treated mice (51Cr release from YAC-1 cells); assay type: in vivo, nude mice; settings: 30 μg/g daily i.p. for 2 weeks
# Procedure: The lymphocytes were then incubated at the indicated effectontarget cell (E:T) ratios with ^51Cr-labeled YAC-1 cells (1×10^4). After 4 hours, the amount of radioactivity in the culture supernatants was measured with a gamma counter. […] Splenic lymphocytes were then isolated and tested for NK cell activity. The result is expressed as the mean of four separate experiments with 95% confidence intervals.
# Splenic lymphocytes were isolated from each mouse and tested immediately for NK cell activity. The spontaneous release of ^51Cr from YAC-1 cells was usually lower than 10% of the total ^51Cr loaded. NK cell activity was calculated as follows: {(experimental release−spontaneous release)/(total release−spontaneous release)}×100. Each assay was repeated three times and the average value is the result from one experiment. Results are expressed as the mean and 95% confidence intervals of 4 separate experiments.
# SiHa cervical carcinoma = SiHa cervical carcinoma xenograft tumor growth in nude mice; assay type: in vivo; settings: YC-1 30 μg/g daily i.p. 2 weeks, P<0.01
# Procedure: as §1, §2, §3
# VEGF = VEGF mRNA RT-PCR in NCI-H87, SiHa, SK-N-MC and Caki-1 cells under hypoxia; assay type: cell-based, human; settings: Caki-1 cells, hypoxic, 16 hours
# Procedure: FIG. 5 is an autoradiograph showing mRNA levels of VEGF and β-actin in cancer cells of different origin.
# Levels of HIF-1α and β-actin proteins were analyzed by immunoblot analysis using a rabbit anti-HIF-1α antibody or a rabbit anti-p-actin antibody. Proteins were visualized by enhanced chemiluminescence.
smiles,measurement,setting,value
"OCc1ccc(-c2nn(Cc3ccccc3)c3ccccc23)o1 [YC-1, 3-(5′-hydroxymethyl-2′-furyl)-1-benzylindazole]",tumor size versus vehicle,[1],statistically significantly smaller
same,cytolytic activity versus vehicle-treated mice,[2],comparable
same,tumor size versus vehicle,SiHa cervical carcinoma,statistically significantly smaller
same,level of VEGF mRNA,VEGF,dose-dependently inhibited
